Measured values from US20050261264A1, “Rare-earth ternary complex” (priority 2000, published 2005).

Experiments:
Type in all cases: physicochemical
[1] = Luminescence quantum yield and luminescence intensity in solution
Protocol: (§1) The intensity of luminescence and the luminescence quantum yield, the quotient of dividing the number of photons emitted from a sample by the number of photons absorbed into the sample, were measured with an SS-25 from JASCO Corporation.
The luminescence quantum yield of an acetonitrile solution of the Eu(PMS)3(TPPO)8 obtained in Example 1 (europium ion concentration: 0.05 mol/L) was measured (excitation wavelength: 465 nm, maximum luminescence wavelength: 612 nm, luminescence wavelength used in measurement: 612 nm).
The solutions prepared in Examples 12 to 14 and Comparative Examples 7 to 9 and Comparative Example B were measured for luminescence intensity at the respective maximum luminescence wavelengths.
The relative luminescence intensity of the solutions used in Examples 12 to 14 and Comparative Example B: (luminescence intensity in each of Examples 12 to 14)/(luminescence intensity in Comparative Example 7) was calculated, letting 1 be the luminescence intensity in Comparative Example 7 (solution of a rare earth complex in which the ligand Z was not coordinated).
Similarly, the relative luminescence intensity in Comparative Example 9: (luminescence intensity in Comparative Example 9)/(luminescence intensity in Comparative Example 8) was calculated, letting 1 be the luminescence intensity in Comparative Example 8 (solution of a known β-diketone-type of rare earth complex in which the ligand Z was not coordinated). The relative luminescence intensity of the solution used in Comparative Example B was 1.6 times.
The luminescence quantum yield of an acetone-d6 solution of the Nd(PMS)3(TPPO)8 obtained in Example 2 (neodymium ion concentration: 0.05 mol/L) was measured (excitation wavelength: 585 nm, maximum luminescence wavelength: 1064 nm, luminescence wavelength used in measurement: 1064 nm).
The solutions prepared in Examples 15 and 16 and Comparative Examples 10 were measured for luminescence intensity at the respective maximum luminescence wavelengths. The relative luminescence intensity in Examples 15 and 16: (luminescence intensity in each of Examples 15 and 16)/(luminescence intensity in Comparative Example 10) was calculated, letting 1 be the luminescence intensity in Comparative Example 10 (rare earth complex in which the ligand Z was not coordinated).

[2] = Miscibility with solvents, visual evaluation at 5 wt %; design: key: ⊚: dissolves at room temperature; ◯: dissolves when heated for 5 minutes at 40° C.; Δ: dissolves under heating, but cooling precipitates crystals; X: does not dissolve; conditions: complex added at 5 wt %
Protocol: (§2) The miscibility of the rare earth complex with various media was evaluated as follows.
1) Miscibility with Solvents

[3] = Miscibility with a polymer matrix, visual evaluation; design: key to Miscibility, PMMA: ⊚: dissolves up to 30 wt %; ◯: dissolves up to 5 wt %; Δ: disperses up to 5 wt %, but there is turbidity; X: repelled at the polymer surface
Protocol: as §2
2) Miscibility with a Polymer Matrix
The rare earth complex serving as the sample was added in the concentrations listed with the evaluation criteria below relative to various media, and the miscibility was visually evaluated according to the following criteria. • ⊚: dissolves up to 30 wt % • ◯: dissolves up to 5 wt % • Δ: disperses up to 5 wt %, but there is turbidity • X: repelled at the polymer surface

[4] = Luminescence quantum yield and luminescence intensity in PMMA polymer matrix composition; conditions: PMMA rod; for Luminescence quantum yield: rare earth ion 0.7 wt %
Protocol: as §1
A 1 mL quantity of refined anhydrous methyl methacrylate (MMA), 0.5 mg of AIBN, and 148 mg (0.7 wt %) as the rare earth ion concentration) of the Eu (PMS)3 (TPPO)8 obtained in Example 1 were mixed, the mixture was transferred to a Pyrex tube, and the inside of the tube was deaerated and then sealed. By reacting for 5 hours at 60° C., the polymerization of MMA was carried out. The resulting PMMA containing Eu(PMS)3 (TPPO)8 was taken out of the Pyrex tube, and a rod-shaped polymer matrix composition was obtained.
(§3) The polymer matrix compositions prepared in Examples 17 to 19 and Comparative Example 11 were measured for luminescence intensity at the respective maximum luminescence wavelengths. The relative luminescence intensity in Examples 17 to 19: (luminescence intensity in each of Examples 17 to 19)/(luminescence intensity in Comparative Example 11) was calculated, letting 1 be the luminescence intensity in Comparative Example 11 (rare earth complex in which the ligand Z was not coordinated).
A rod-shaped polymer matrix composition containing […] was obtained in the same manner as in Example 17, except that 148 mg (rare earth ion concentration: 0.7 wt %) of the Nd(PMS)3 (TPPO)8 obtained in Example 2 was used instead of Eu(PMS)3 (TPPO)8.
as §3, with “20 and 21” for “17 to 19”, “12” for “11”, “20 and 21:” for “17 to 19:”, “20 and 21)/(luminescence” for “17 to 19)/(luminescence”, “12)” for “11)”

[5] = Mechanoluminescence of polycarbonate film hit with a metal rod; conditions: polycarbonate film about 6 μm thick, visual
Protocol: The rare earth ternary complex of the present invention can be used as a mechanoluminescence material. The term mechanoluminescence as used here refers to a phenomenon whereby physical force (such as pressure, vibration energy or the like) imparted to the rare earth ternary complex is converted into optical energy, causing the complex to emit light.
A 50 mg quantity of the Eu(PMS)3(Phen)m obtained in Example 8 and 450 mg of polycarbonate were dissolved in 3 mL of methylene chloride and then uniformly stirred to obtain a polymer solution. This polymer solution was then cast onto a glass plate, after which it was dried in vacuo overnight to remove the solvent, forming a polycarbonate film containing Eu(PMS)3(Phen)m, which is about 6 μm thick, on the glass plate.
A polycarbonate film containing Eu(PMS)3, which is about 6 μm thick, was formed on a glass plate in the same manner as in Example 22, except that 42 mg of the Eu(PMS)3 prepared in Producing Example 1 was used instead of Eu(PMS)3 (Phen) m.

[6] = Number of moles of bound water per mole of complex (TG-DTA); conditions: for Bound water (number of moles of bound water per mole of complex): Table 1, dried samples for the ternary complexes
Protocol: The number of moles of bound water per mole of complex was measured using a TG-DTA 2000 from MAC Science.
A 20 g quantity of Eu(PMS)3 was added to 100 mL of isopropanol, then 43 g ([…] the molar amount of the Eu(PMS)3) of triphenylphosphine oxide (hereinafter referred to as TPPO) was added, and the system was refluxed for 3 hours, and then gradually cooled. The resulting white powder was filtered off. The white powder thus obtained was washed with hot n-hexane, and recrystallized with water-methanol to obtain 44 g of Eu(PMS)3(TPPO)8 in the form of white acicular crystals (yield: 85%). The TG-DTA was measured for these crystals, and it was found from the weight reduction at 100° C. that the number of moles of bound water per mole of complex was 2.93. The IR, NMR, UV absorption characteristics, and elemental analysis results for the obtained Eu(PMS)3(TPPO)8(H2O)2.93 are given below.
Eu(PMS)3(TPPO)8(H2O)2.93 obtained by the above synthesis method was dried in vacuo for 3 hours at 140° C. and a reduced pressure of […]. TG-DTA measurement for the resulting white powder was carried out to obtain a weight reduction at 100° C. It was found from the obtained value that the number of moles of bound water per mole of complex was 0.18.

[7] = acetonitrile solution, Eu 0.05 mol/L, relative to Eu(PMS)3 (Comparative Example 7) = 1
[8] = acetonitrile solution, europium ion 0.05 mol/L, excitation 465 nm, luminescence 612 nm
[9] = Eu 0.7 wt %, relative to Eu(PMS)3 (Comparative Example 11) = 1
[10] = after drying in vacuo at 140° C.
[11] = before drying (crystals as obtained), weight reduction at 100° C.
[12] = acetone-d6 solution, Nd 0.05 mol/L, relative to Nd(PMS)3 (Comparative Example 10) = 1
[13] = acetone-d6 solution, neodymium ion 0.05 mol/L, excitation 585 nm, luminescence 1064 nm
[14] = Nd 0.7 wt %, relative to Nd(PMS)3 (Comparative Example 12) = 1
[15] = excitation 585 nm, luminescence 1064 nm

Structure (SMILES) | Relative luminescence intensity [1, 7] | Luminescence quantum yield [1, 8] [%] | Miscibility, Acetone [2] | Miscibility, Chloroform [2] | Miscibility, Toluene [2] | Miscibility, Water [2] | Miscibility, Epoxy resin [3] | Miscibility, Nafion [3] | Miscibility, PMMA [3] | Relative luminescence intensity [4, 9] | Light emission when film is hit with a metal rod (mechanoluminescence) [5] | Bound water (number of moles of bound water per mole of complex) [6] | Number of moles of bound water per mole of complex [6, 10] | Number of moles of bound water per mole of complex [6, 11] | Luminescence quantum yield ([4]; excitation 465 nm, luminescence 612 nm) [%] | Relative luminescence intensity [1, 12] | Luminescence quantum yield [1, 13] [%] | Relative luminescence intensity [4, 14] | Luminescence quantum yield [4, 15] [%]
O=S(=O)([N-]S(=O)(=O)C(F)(F)F)C(F)(F)F.O=S(=O)([N-]S(=O)(=O)C(F)(F)F)C(F)(F)F.O=S(=O)([N-]S(=O)(=O)C(F)(F)F)C(F)(F)F.[Eu+3].c1cnc2c(c1)ccc1cccnc12.c1cnc2c(c1)ccc1cccnc12.c1cnc2c(c1)ccc1cccnc12.c1cnc2c(c1)ccc1cccnc12 [Eu(PMS)3(Phen)m] | 49.5 | 5.1 | ⊚ | Δ | Δ | X | ◯ (dissolves up to 5 wt %) | ◯ (dissolves up to 5 wt %) | ◯ (dissolves up to 5 wt %) | 5566 | emits red light | 0.00 | water had been completely removed | 3.06 | – | – | – | – | –
O=S(=O)([N-]S(=O)(=O)C(F)(F)F)C(F)(F)F.O=S(=O)([N-]S(=O)(=O)C(F)(F)F)C(F)(F)F.O=S(=O)([N-]S(=O)(=O)C(F)(F)F)C(F)(F)F.[Eu+3] [Eu(PMS)3, reference compound] | 1.0 | 5.0 | ⊚ | X | X | ⊚ | Δ (disperses up to 5 wt %, but there is turbidity) | Δ (disperses up to 5 wt %, but there is turbidity) | X | 1.0 | no light emission was noted | 2.08 | – | – | 2.5 | – | – | – | –
O=S(=O)([N-]S(=O)(=O)C(F)(F)F)C(F)(F)F.O=S(=O)([N-]S(=O)(=O)C(F)(F)F)C(F)(F)F.O=S(=O)([N-]S(=O)(=O)C(F)(F)F)C(F)(F)F.O=S(c1ccccc1)c1ccccc1.O=S(c1ccccc1)c1ccccc1.O=S(c1ccccc1)c1ccccc1.O=S(c1ccccc1)c1ccccc1.O=S(c1ccccc1)c1ccccc1.O=S(c1ccccc1)c1ccccc1.O=S(c1ccccc1)c1ccccc1.O=S(c1ccccc1)c1ccccc1.[Nd+3] [Nd(PMS)3(DPSO)8] | – | – | ⊚ | ◯ | ◯ | X | ◯ (dissolves up to 5 wt %) | ◯ (dissolves up to 5 wt %) | ◯ (dissolves up to 5 wt %) | – | – | 0.00 | – | – | – | 1.6 | 1.3 | 90 | 0.9
O=P(c1ccccc1)(c1ccccc1)c1ccccc1.O=P(c1ccccc1)(c1ccccc1)c1ccccc1.O=P(c1ccccc1)(c1ccccc1)c1ccccc1.O=P(c1ccccc1)(c1ccccc1)c1ccccc1.O=P(c1ccccc1)(c1ccccc1)c1ccccc1.O=P(c1ccccc1)(c1ccccc1)c1ccccc1.O=P(c1ccccc1)(c1ccccc1)c1ccccc1.O=P(c1ccccc1)(c1ccccc1)c1ccccc1.O=S(=O)([N-]S(=O)(=O)C(F)(F)F)C(F)(F)F.O=S(=O)([N-]S(=O)(=O)C(F)(F)F)C(F)(F)F.O=S(=O)([N-]S(=O)(=O)C(F)(F)F)C(F)(F)F.[Nd+3] [Nd(PMS)3(TPPO)8] | – | – | ⊚ | ⊚ | ◯ | X | ◯ (dissolves up to 5 wt %) | ◯ (dissolves up to 5 wt %) | ◯ (dissolves up to 5 wt %) | – | – | 0.24 | 0.24 | 3.41 | – | 1.4 | 1.1 | 80 | 0.8
